Source: paper PMC9481570, “A small molecule antagonist of SMN disrupts the interaction between SMN and RNAP II” (Nature Communications, 2022)
“And” between values parts separate entries of the source, which are not always exact repeats. Identical values can stand only once.

Columns and labels:
Test in all cases: Affinity-purification and mass spectrometry (AP-MS) chemical proteomics, all proteins;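 on Difference: 200 µM free competitor with 20 µM biotin probe overnight in lysate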
Format in all cases: binding
[1] = molecular target: T1, proteins displaced from immobilized biotin-Cmpd 1 pulldowns (U2OS cell lysate) (Homo sapiens, UniProt P25311); conditions: GN=AZGP1 (P25311)
T1 construct: endogenous in cells; host or cells: U2OS

[2] = molecular target: T2, proteins displaced from immobilized biotin-Cmpd 1 pulldowns (U2OS cell lysate) (Homo sapiens, UniProt Q9Y3C1); conditions: GN=NOP16 (Q9Y3C1)
T2 construct: endogenous in cells; host or cells: U2OS

[3] = molecular target: T3, proteins displaced from immobilized biotin-Cmpd 1 pulldowns (U2OS cell lysate) (Homo sapiens, UniProt P06396); conditions: GN=GSN (P06396)
T3 construct: endogenous in cells; host or cells: U2OS

[4] = molecular target: T4, proteins displaced from immobilized biotin-Cmpd 1 pulldowns (U2OS cell lysate) (Homo sapiens, UniProt Q9H8H0); conditions: GN=NOL11 (Q9H8H0)
T4 construct: endogenous in cells; host or cells: U2OS

[5] = molecular target: T5, proteins displaced from immobilized biotin-Cmpd 1 pulldowns (U2OS cell lysate) (Homo sapiens, UniProt Q96AE4); conditions: GN=FUBP1 (Q96AE4)
T5 construct: endogenous in cells; host or cells: U2OS

[6] = molecular target: T6, proteins displaced from immobilized biotin-Cmpd 1 pulldowns (U2OS cell lysate) (Homo sapiens, UniProt P38646); conditions: GN=HSPA9 (P38646)
T6 construct: endogenous in cells; host or cells: U2OS

[7] = molecular target: T7, proteins displaced from immobilized biotin-Cmpd 1 pulldowns (U2OS cell lysate) (Homo sapiens, UniProt O43684); conditions: GN=BUB3 (O43684)
T7 construct: endogenous in cells; host or cells: U2OS

[8] = tested on: proteins displaced from immobilized biotin-Cmpd 1 pulldowns (U2OS cell lysate); conditions: Cmpd minus DMSO
[9] = molecular target: T8, proteins displaced from immobilized biotin-Cmpd 1 pulldowns (U2OS cell lysate) (Homo sapiens, UniProt Q8NBJ5); conditions: GN=COLGALT1 (Q8NBJ5)
T8 construct: endogenous in cells; host or cells: U2OS

T2 sequence (Q9Y3C1 whole entry): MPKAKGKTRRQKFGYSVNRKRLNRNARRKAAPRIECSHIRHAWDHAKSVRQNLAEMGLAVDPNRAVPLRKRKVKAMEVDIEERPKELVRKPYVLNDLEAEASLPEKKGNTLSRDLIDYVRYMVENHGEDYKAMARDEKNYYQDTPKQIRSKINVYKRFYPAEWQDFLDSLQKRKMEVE
T5 sequence (Q96AE4 whole entry): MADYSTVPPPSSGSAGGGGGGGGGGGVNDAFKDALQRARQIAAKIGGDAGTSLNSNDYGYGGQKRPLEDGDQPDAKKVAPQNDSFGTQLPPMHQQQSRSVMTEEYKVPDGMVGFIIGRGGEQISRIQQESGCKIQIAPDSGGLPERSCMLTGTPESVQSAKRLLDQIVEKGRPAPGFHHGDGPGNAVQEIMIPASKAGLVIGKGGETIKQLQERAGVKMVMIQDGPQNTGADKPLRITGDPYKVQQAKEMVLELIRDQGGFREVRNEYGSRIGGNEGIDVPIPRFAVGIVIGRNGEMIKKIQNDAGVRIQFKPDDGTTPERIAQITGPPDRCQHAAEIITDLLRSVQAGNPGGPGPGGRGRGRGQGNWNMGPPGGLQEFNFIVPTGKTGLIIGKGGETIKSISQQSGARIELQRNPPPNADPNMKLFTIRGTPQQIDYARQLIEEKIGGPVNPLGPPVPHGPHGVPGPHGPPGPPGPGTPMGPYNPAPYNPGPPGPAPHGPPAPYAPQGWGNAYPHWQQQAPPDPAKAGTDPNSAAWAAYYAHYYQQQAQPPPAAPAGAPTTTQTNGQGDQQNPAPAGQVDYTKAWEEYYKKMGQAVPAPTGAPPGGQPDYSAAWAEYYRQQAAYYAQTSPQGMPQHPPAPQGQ
T6 sequence (P38646 47-679): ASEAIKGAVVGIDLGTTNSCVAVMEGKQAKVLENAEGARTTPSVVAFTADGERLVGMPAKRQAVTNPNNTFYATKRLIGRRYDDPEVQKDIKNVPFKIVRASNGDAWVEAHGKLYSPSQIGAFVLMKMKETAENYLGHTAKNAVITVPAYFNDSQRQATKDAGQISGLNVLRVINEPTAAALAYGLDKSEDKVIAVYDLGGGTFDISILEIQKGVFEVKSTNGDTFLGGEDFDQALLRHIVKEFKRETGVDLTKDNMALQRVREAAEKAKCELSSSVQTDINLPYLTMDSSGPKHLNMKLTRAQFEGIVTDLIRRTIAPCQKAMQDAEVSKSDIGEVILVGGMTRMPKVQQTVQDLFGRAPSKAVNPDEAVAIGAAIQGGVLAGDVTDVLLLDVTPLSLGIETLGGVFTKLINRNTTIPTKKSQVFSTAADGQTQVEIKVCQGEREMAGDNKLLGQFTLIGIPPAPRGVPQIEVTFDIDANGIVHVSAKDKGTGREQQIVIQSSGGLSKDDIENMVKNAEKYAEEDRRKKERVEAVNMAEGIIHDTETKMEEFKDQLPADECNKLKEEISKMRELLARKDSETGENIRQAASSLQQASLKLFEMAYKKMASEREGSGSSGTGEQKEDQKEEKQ
T1 sequence (P25311 21-298): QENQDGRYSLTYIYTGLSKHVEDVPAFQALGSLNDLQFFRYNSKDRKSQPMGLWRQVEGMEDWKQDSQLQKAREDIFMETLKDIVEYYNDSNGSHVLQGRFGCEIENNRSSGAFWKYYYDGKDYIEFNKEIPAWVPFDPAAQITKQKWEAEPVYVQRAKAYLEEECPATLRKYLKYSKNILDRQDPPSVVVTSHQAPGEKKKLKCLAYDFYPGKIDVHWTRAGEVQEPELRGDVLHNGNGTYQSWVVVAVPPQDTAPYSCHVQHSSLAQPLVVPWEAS
T4 sequence (Q9H8H0 whole entry): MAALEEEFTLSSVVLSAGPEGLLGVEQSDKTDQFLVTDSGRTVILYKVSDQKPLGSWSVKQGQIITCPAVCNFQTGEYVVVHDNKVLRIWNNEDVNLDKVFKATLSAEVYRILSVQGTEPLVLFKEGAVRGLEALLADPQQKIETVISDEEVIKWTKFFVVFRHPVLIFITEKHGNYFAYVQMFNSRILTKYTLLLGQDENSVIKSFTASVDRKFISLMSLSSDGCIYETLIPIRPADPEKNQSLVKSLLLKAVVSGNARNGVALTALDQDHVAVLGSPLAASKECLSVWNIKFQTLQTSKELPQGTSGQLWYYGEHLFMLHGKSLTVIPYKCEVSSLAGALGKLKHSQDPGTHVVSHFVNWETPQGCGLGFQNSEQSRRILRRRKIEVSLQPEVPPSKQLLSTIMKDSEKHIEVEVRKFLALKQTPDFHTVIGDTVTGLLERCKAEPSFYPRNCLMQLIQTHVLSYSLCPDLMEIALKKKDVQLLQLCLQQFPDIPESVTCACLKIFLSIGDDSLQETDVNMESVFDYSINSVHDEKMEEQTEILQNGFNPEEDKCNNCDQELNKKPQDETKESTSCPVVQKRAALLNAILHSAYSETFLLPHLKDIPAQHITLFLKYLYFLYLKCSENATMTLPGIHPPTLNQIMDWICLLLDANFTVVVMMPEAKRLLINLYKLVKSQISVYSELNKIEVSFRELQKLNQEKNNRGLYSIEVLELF
T3 sequence (P06396 28-782): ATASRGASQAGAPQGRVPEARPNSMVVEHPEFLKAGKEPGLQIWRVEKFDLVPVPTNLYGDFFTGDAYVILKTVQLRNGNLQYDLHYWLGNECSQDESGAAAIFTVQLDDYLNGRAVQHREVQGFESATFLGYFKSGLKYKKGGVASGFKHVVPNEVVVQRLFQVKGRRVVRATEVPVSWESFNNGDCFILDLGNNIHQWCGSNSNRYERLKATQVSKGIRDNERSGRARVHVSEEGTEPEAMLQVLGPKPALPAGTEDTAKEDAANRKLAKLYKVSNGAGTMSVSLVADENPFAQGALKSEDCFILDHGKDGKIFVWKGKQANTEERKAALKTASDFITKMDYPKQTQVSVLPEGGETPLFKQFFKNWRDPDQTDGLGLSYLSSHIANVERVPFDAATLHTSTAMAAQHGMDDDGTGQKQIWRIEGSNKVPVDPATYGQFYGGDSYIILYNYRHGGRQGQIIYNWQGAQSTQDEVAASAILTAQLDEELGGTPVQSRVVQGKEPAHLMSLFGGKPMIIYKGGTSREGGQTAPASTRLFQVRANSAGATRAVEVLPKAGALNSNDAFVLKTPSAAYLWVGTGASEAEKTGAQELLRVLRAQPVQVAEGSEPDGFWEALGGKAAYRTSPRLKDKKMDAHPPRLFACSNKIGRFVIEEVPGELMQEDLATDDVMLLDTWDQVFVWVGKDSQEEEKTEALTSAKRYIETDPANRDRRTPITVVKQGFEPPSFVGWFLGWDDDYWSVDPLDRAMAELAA
T7 sequence (O43684 whole entry): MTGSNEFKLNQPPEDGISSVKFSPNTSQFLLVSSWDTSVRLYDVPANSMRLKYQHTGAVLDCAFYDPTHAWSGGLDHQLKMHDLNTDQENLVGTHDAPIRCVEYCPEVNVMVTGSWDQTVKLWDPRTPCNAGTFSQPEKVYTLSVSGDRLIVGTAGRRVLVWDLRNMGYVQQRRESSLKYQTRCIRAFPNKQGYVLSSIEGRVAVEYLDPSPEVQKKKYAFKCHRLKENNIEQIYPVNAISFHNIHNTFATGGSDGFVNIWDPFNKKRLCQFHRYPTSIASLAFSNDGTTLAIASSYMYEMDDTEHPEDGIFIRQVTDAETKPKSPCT

Cn1c2c(c(=N)c3c1CCC3)CCC2 [Compound 1, 4-methyl-2,3,4,5,6,7-hexahydrodicyclopenta[b,e]pyridin-8(1H)-imine] was tested, and the Difference ([1]; Cmpd minus DMSO, -LOG(P-value) 0.92202) was -1.239, the “iBAQ Cmpd” value ([1]; replicates 1-3) was 21.041 and 21.3151 and 19.6243 and the Difference ([2]; Cmpd minus DMSO, -LOG(P-value) 0.713884) was 3.378. For the same molecule, the “iBAQ Cmpd” value ([2]; replicates 1-3) was 19.623 and 19.0936 and 18.8692, the Difference ([3]; Cmpd minus DMSO, -LOG(P-value) 0.71197) was -1.503 and the “iBAQ Cmpd” value ([3]; replicates 1-3) was 18.7093 and 18.978 and 19.6978. The Difference ([4]; Cmpd minus DMSO, -LOG(P-value) 1.02475) was -0.9892, the “iBAQ Cmpd” value ([4]; replicates 1-3) was 17.1431 and 16.1539 and 16.3373 and the Difference ([5]; Cmpd minus DMSO, -LOG(P-value) 0.798774) was 1.187. The “iBAQ Cmpd” value ([5]; replicates 1-3) was 19.58 and 17.8353 and 18.5748, the Difference ([6]; Cmpd minus DMSO, -LOG(P-value) 0.718324) was 0.7463 and the “iBAQ Cmpd” value ([6]; replicates 1-3) was 19.8777 and 19.6433 and 19.5335. The Difference ([7]; Cmpd minus DMSO, -LOG(P-value) 1.63376) was 1.137, the “iBAQ Cmpd” value ([7]; replicates 1-3) was 19.492 and 19.0748 and 18.4379 and the Difference ([8]; GN=ACTA1/ACTC1 (P68133;P68032;P63267;P62736), -LOG(P-value) 1.19415) was -2.469. For the same molecule, the Difference ([8]; GN=FXR1 (P51114;P51116 FXR2), -LOG(P-value) 0.714644) was 1.56, the Difference ([8]; GN=MYL1/MYL3 (P05976;P08590), -LOG(P-value) 0.754366) was -4.118 and the Difference ([8]; GN=RGPD4/RGPD3 (Q7Z3J3;A6NKT7;P49792), -LOG(P-value) 1.07048) was -0.9439. The Difference ([8]; GN=TUBB2A/TUBB2B (Q13885;Q9BVA1), -LOG(P-value) 2.56756) was 3.9801, the Difference ([9]; Cmpd minus DMSO, -LOG(P-value) 0.726003) was 1.872 and the “iBAQ Cmpd” value ([9]; replicates 1-3) was 17.5569 and 16.2606 and 16.9957.
